Holding throughout (type): functional
The nature of assay [1]: Inhibition of LPS-induced IL-12 p40 production in wild-type C57BL/6 mouse BMDC pretreated with compound for 1 hr before LPS treatment measured 16 hrs by ELISA. A general note: An ELISA detects its analyte on a solid surface through an enzyme-linked reagent.
A short description of assay [2]: Inhibition of LPS-induced IL-6 production in wild-type C57BL/6 mouse BMDC pretreated with compound for 1 hr before LPS treatment measured 16 hrs by ELISA.
A short description of assay [3]: Inhibition of LPS-induced TNF-alpha production in wild-type C57BL/6 mouse BMDC pretreated with compound for 1 hr before LPS treatment measured 16 hrs by ELISA.

We go through 17 molecules from ChEMBL document CHEMBL3400115, “Chemical constituents from Kandelia candel with their inhibitory effects on pro-inflammatory cytokines production in LPS-stimulated bone marrow-derived dendritic cells (BMDCs)” (Bioorg Med Chem Lett, 2015).

Usually IC50 stands for the concentration that gives 50% inhibition.

Regarding `COc1cc([C@H]2OC[C@H]3[C@@H]2CO[C@@H]3c2cc(OC)c(O[C@@H]3O[C@H](CO)[C@@H](O)[C@H](O)[C@H]3O)c(OC)c2)cc(OC)c1O`, the IC50 in assay [1], in assay [2] and in assay [3] was greater than 50 µM throughout.

As for `COc1cc(-c2oc3cc(O)cc(O)c3c(=O)c2O[C@@H]2O[C@H](CO)[C@@H](O)[C@H](O)[C@H]2O)ccc1O`, the IC50 in assay [1], in assay [2] and in assay [3] was greater than 50 µM throughout.

Turning to `CC1=C(CC[C@H](C)O)C(C)(C)C[C@H](O[C@@H]2O[C@H](CO)[C@@H](O)[C@H](O)[C@H]2O)C1`, the 50% inhibitory concentration (IC50) in assay [1], in assay [2] and in assay [3] was greater than 50 µM in each case.

With `CC(C)(O)[C@H]1CC[C@@]2(C)[C@@H]3C[C@@H](O[C@@H]4O[C@H](CO)[C@@H](O)[C@H](O)[C@H]4O)[C@]2(C)[C@H](O)C31`, the IC50 in assay [1], in assay [2] and in assay [3] was greater than 50 µM in each case.

Consider `CC1=CC(=O)CC(C)(C)[C@H]1CC[C@H](C)O[C@@H]1O[C@H](CO)[C@@H](O)[C@H](O)[C@H]1O`, for which the IC50 in assay [1], in assay [2] and in assay [3] was greater than 50 µM each time.

As for `COc1cc([C@@H](O)[C@H](O)CO)cc(OC)c1O` (relative stereo), the IC50 is greater than 50 µM in assay [1], greater than 50 µM in assay [2] and 28.7 µM in assay [3].

In the case of `COc1cc([C@@H](O)[C@@H](O)CO)cc(OC)c1O` (relative stereo), the IC50 in assay [1], in assay [2] and in assay [3] was greater than 50 µM throughout.

With `CC1=CC(=O)CC(C)(C)[C@@]1(O)/C=C/[C@H](C)O[C@@H]1O[C@H](CO)[C@@H](O)[C@H](O)[C@H]1O` [6S,9S-ROSEOSIDE], the IC50 in assay [1] was greater than 50 µM; in assay [2], 0.07 µM; in assay [3] it was 49.9 µM.

Take `Oc1cc(O)c2c(c1)O[C@H](c1ccc(O)c(O)c1)[C@H](O)C2` [(-)-EPICATECHIN]: the IC50 in assay [1], in assay [2] and in assay [3] was greater than 50 µM throughout.

On to `C[C@@H]1O[C@@H](Oc2c(-c3ccc(O)cc3)oc3cc(O)cc(O)c3c2=O)[C@H](O)[C@H](O)[C@H]1O` [AFZELIN], for which the IC50 in assay [1], in assay [2] and in assay [3] was greater than 50 µM in each case.

For the molecule `O=C(O)/C=C/c1ccc(O)c(O)c1` [CAFFEIC ACID], the IC50 in assay [1], in assay [2] and in assay [3] was greater than 50 µM in each case.

`O=C(/C=C/c1ccc(O)c(O)c1)O[C@@H]1C[C@](O)(C(=O)O)C[C@@H](O)[C@H]1O` [CHLOROGENIC ACID]: the IC50 in assay [1], in assay [2] and in assay [3] was greater than 50 µM in each case.

On to `Oc1cc(O)c2c(c1)O[C@H](c1ccc(O)c(O)c1)[C@@H](O)C2` [CIANIDANOL], for which the IC50 in assay [1], in assay [2] and in assay [3] was greater than 50 µM in each case.

Turning to `O=c1c(O[C@@H]2O[C@H](CO)[C@@H](O)[C@H](O)[C@H]2O)c(-c2ccc(O)c(O)c2)oc2cc(O)cc(O)c12` [ISOQUERCETIN], the IC50 in assay [1], in assay [2] and in assay [3] was greater than 50 µM in each case.

Regarding `COc1cc(-c2oc3cc(O)cc(O)c3c(=O)c2O[C@@H]2O[C@H](CO[C@@H]3O[C@@H](C)[C@H](O)[C@@H](O)[C@H]3O)[C@@H](O)[C@H](O)[C@H]2O)ccc1O` [NARCISSIN], the IC50 in assay [1], in assay [2] and in assay [3] was greater than 50 µM in each case.

For `O=C(O)c1ccc(O)c(O)c1` [PROTOCATECHUIC ACID], the IC50 in assay [1], in assay [2] and in assay [3] was greater than 50 µM in each case.

For the molecule `C[C@@H]1O[C@@H](OC[C@H]2O[C@@H](Oc3c(-c4ccc(O)c(O)c4)oc4cc(O)cc(O)c4c3=O)[C@H](O)[C@@H](O)[C@@H]2O)[C@H](O)[C@H](O)[C@H]1O` [RUTIN], the IC50 in assay [1], in assay [2] and in assay [3] was greater than 50 µM throughout.
